The record followed here is patent publication US8604036B2, “Pyridazinone derivatives” (Merck Patent GmbH, priority 2008, dated 2013).

pIC50: −log10 of the molar value.

Experiment [1] has as its target T1, Met kinase (Homo sapiens, UniProt P08581). As to the kind of experiment: Met kinase inhibition (cell). The format is cell-based.
Target sequence in this assay (P08581 25-1390): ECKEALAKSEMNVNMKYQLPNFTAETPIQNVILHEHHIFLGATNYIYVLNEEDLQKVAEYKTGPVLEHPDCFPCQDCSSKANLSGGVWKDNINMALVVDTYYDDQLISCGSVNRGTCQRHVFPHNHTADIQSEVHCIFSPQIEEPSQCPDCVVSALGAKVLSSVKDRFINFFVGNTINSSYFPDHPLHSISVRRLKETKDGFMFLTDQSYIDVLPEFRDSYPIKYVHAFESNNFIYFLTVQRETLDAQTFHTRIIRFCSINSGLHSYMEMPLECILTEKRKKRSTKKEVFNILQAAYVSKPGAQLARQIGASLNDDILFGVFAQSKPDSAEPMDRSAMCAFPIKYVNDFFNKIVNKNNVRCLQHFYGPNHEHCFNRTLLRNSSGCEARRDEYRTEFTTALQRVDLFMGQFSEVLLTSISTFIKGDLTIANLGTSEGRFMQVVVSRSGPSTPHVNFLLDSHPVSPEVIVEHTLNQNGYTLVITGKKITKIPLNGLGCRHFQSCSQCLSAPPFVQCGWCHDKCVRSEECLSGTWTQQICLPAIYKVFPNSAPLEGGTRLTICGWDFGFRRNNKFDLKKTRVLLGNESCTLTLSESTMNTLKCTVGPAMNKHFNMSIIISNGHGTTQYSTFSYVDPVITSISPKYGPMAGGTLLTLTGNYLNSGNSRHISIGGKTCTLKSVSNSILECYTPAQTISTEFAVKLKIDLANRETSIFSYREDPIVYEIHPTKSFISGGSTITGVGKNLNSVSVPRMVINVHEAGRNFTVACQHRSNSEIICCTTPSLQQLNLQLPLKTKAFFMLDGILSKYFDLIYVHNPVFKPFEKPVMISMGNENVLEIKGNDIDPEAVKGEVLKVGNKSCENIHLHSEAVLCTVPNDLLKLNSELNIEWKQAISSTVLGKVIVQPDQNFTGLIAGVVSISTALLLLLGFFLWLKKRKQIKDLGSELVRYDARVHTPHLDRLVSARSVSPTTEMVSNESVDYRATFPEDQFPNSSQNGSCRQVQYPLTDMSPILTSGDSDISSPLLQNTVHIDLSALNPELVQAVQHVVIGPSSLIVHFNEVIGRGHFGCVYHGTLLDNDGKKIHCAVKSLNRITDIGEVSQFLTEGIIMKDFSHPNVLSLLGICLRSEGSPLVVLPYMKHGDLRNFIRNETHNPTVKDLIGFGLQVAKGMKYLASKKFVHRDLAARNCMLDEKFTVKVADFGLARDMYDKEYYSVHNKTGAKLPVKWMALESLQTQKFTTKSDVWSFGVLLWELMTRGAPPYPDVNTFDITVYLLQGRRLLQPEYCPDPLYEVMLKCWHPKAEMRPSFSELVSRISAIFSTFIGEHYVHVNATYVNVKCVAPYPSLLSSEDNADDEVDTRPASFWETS
Experiment [2] deals with T1, Met kinase. Nature of the experiment: Met kinase inhibition, flashplate method (enzyme). The format is biochemical. Further details: 6His (N); purchased Upstate 14-526; host or cells: Sf21 insect cells (S. frugiperda), baculovirus. The text has this: Measurement of Met Kinase Activity
According to the manufacturer's data (Met, active, upstate, catalogue No. 14-526), Met kinase is expressed for the purposes of protein production in insect cells (Sf21; S. frugiperda) and subsequent affinity-chromatographic purification as “N-terminal 6His-tagged” recombinant human protein in a baculovirus expression vector.
Flashplate Method (Met Kinase)
The test plates used are 96-well Flashplate® microtitre plates from Perkin Elmer (Cat. No. SMP200). The components of the kinase reaction described below are pipetted into the assay plate. The Met kinase and the substrate poly Ala-Glu-Lys-Tyr, (pAGLT, 6:2:5:1), are incubated for 3 hrs at room temperature with radioactively labelled ^33P-ATP in the presence and absence of test substances in a total volume of 100 μl. The reaction is terminated using 150 μl of a 60 mM EDTA solution. After incubation for a further 30 min at room temperature, the supernatants are filtered off with suction, and the wells are washed three times with 200 μl of 0.9% NaCl solution each time. The measurement of the bound radioactivity is carried out by means of a scintillation measuring instrument (Topcount NXT, Perkin-Elmer).
The full value used is the inhibitor-free kinase reaction. This should be approximately in the range 6000-9000 cpm. […] The inhibitory values (IC50) are determined using the RS1_MTS program. […]
Target sequence in this assay (P08581 974-1390 limits assumed): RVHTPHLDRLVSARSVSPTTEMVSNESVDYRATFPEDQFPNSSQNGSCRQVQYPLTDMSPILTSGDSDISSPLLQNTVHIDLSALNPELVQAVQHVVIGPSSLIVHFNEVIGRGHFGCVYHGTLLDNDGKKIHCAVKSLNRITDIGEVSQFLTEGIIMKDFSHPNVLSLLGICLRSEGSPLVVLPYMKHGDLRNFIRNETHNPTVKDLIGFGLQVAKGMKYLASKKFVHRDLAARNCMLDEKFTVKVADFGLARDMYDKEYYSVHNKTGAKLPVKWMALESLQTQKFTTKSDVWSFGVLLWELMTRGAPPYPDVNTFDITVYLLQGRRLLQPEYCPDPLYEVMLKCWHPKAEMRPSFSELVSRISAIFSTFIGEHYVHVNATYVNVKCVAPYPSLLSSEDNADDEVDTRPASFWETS

Usually pIC50 stands for −log10 of the IC50, conventionally taken in molar units. Higher therefore signals a small IC50.

`Cc1ccc(-c2cccc(Cn3nc(-c4cc(F)cc(F)c4)ccc3=O)n2)nc1` [Compound A1, 6-(3,5-difluorophenyl)-2-(5′-methyl-[2,2′]bipyridinyl-6-ylmethyl)-2H-pyridazin-3-one]: the figures for the negative-log IC50 (pIC50) in experiment [1] and in experiment [2] were 5.00 to 6.00 and 6.00 to 8.00, respectively.
`N#Cc1cccc(-c2ccc(=O)n(Cc3cccc(-c4ncc(-c5cnn(CCN6CCCC6)c5)cn4)n3)n2)c1` [Compound A2, 3-[6-oxo-1-(6-{5-[1-(2-pyrrolidin-1-ylethyl)-1H-pyrazol-4-yl]pyrimidin-2-yl}pyridin-2-ylmethyl)-1,6-dihydropyridazin-3-yl]benzonitrile] gave a pIC50 in experiment [1] of 6.00 to 8.00.
